From PubChem BioAssay AID1963875 (Molecular Pharmacology Branch, DTP, NCI, 2024)

System: KRAS-mutant PDC complex spheroid viability
Test: Anticancer human tumor 186277-243-T-J2-PDC patient-derived colon adenocarcinoma cell line growth inhibition [KRAS2]
Conditions: for viability, T/C: stronger effect = lower value
Procedure, shortened: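 KRAS-mutant tumor cells were grown as spheroids with HUVEC endothelial cells and human MSCs as stroma. Targeted agents were tested alone and with KRAS pathway inhibitors. Doses started at or near clinical Cmax, or 10 microM, descending half-log.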

[1] = curve of first compound, second compound 0.1 µM
[2] = curve of first compound, second compound 0.316 µM
[3] = curve of first compound, second compound 1 µM
[4] = curve of first compound, second compound 3.16 µM
[5] = curve of first compound, second compound 10 µM
[6] = second compound 0.1 µM, first compound 0.0316 µM
[7] = second compound 0.316 µM, first compound 0.0316 µM
[8] = second compound 1 µM, first compound 0.0316 µM
[9] = second compound 3.16 µM, first compound 0.0316 µM
[10] = second compound 10 µM, first compound 0.0316 µM
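For viability, T/C in this document: viability read after seven days of compound exposure; 100% = DMSO vehicle-treated spheroids so lower means less viable.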

CC(=O)Nc1cccc(-n2c(=O)n(C3CC3)c(=O)c3c(Nc4ccc(I)cc4F)n(C)c(=O)c(C)c32)c1 + C=CC(=O)N1CCN(c2nc(=O)n(-c3c(C)ccnc3C(C)C)c3nc(-c4c(O)cccc4F)c(F)cc23)C(C)C1
IC50 [1]: 625 pM | IC50 [2]: 659 pM | IC50 [3]: 583 pM | IC50 [4]: 444 pM | IC50 [5]: 110 pM | viability, T/C (second compound 0.1 µM, first compound 0.0001 µM): 99.2% | viability, T/C (second compound 0.1 µM, first compound 0.000316 µM): 96.3% | viability, T/C (second compound 0.1 µM, first compound 0.001 µM): 18% | viability, T/C (second compound 0.1 µM, first compound 0.00316 µM): 8.67% | viability, T/C (second compound 0.1 µM, first compound 0.01 µM): 2.97% | viability, T/C [6]: 1.31% | viability, T/C (second compound 0.316 µM, first compound 0.0001 µM): 100% | viability, T/C (second compound 0.316 µM, first compound 0.000316 µM): 99.7% | viability, T/C (second compound 0.316 µM, first compound 0.001 µM): 21.9% | viability, T/C (second compound 0.316 µM, first compound 0.00316 µM): 9% | viability, T/C (second compound 0.316 µM, first compound 0.01 µM): 3.1% | viability, T/C [7]: 1.46% | viability, T/C (second compound 1 µM, first compound 0.0001 µM): 111% | viability, T/C (second compound 1 µM, first compound 0.000316 µM): 86.7% | viability, T/C (second compound 1 µM, first compound 0.001 µM): 17.4% | viability, T/C (second compound 1 µM, first compound 0.00316 µM): 7.6% | viability, T/C (second compound 1 µM, first compound 0.01 µM): 4.82% | viability, T/C [8]: 1.76% | viability, T/C (second compound 3.16 µM, first compound 0.0001 µM): 90.9% | viability, T/C (second compound 3.16 µM, first compound 0.000316 µM): 65.8% | viability, T/C (second compound 3.16 µM, first compound 0.001 µM): 11.9% | viability, T/C (second compound 3.16 µM, first compound 0.00316 µM): 9.32% | viability, T/C (second compound 3.16 µM, first compound 0.01 µM): 2.47% | viability, T/C [9]: 1.47% | viability, T/C (second compound 10 µM, first compound 0.0001 µM): 53.6% | viability, T/C (second compound 10 µM, first compound 0.000316 µM): 9.73% | viability, T/C (second compound 10 µM, first compound 0.001 µM): 3.83% | viability, T/C (second compound 10 µM, first compound 0.00316 µM): 4.23% | viability, T/C (second compound 10 µM, first compound 0.01 µM): 0.78% | viability, T/C [10]: 0.43%

COc1cc2nccc(Oc3ccc(NC(=O)C4(C(=O)Nc5ccc(F)cc5)CC4)cc3)c2cc1OC
viability, T/C (compound 0.0316 µM): 92.6% [middle of 5 runs] | viability, T/C (compound 0.1 µM): 99.7% [middle of 5 runs] | viability, T/C (compound 0.316 µM): 104% [middle of 5 runs] | viability, T/C (compound 3.16 µM): 13.8% [middle of 5 runs] | IC50 (curve of compound): 2.02 µM [middle of 4 runs]

COC(=O)c1ccc2c(C(=Nc3ccc(N(C)C(=O)CN4CCN(C)CC4)cc3)c3ccccc3)c(O)[nH]c2c1
viability, T/C (compound 0.0316 µM): 93.8% [middle of 5 runs] | viability, T/C (compound 0.1 µM): 104% [middle of 5 runs] | viability, T/C (compound 0.316 µM): 99.4% [middle of 5 runs] | viability, T/C (compound 1 µM): 107% [middle of 5 runs] | viability, T/C (compound 10 µM): 16% [middle of 5 runs] | IC50 (curve of compound): 3.62 µM [middle of 4 runs]

COc1cc(Nc2ncc3c(n2)-c2ccc(Cl)cc2C(c2c(F)cccc2OC)=NC3)ccc1C(=O)O + CNCc1ccccc1-c1csc(C(C)Nc2nc(C)nc3cc(OC)c(OC)cc23)c1
IC50 [1]: < 31600 pM | IC50 [2]: < 31600 pM | IC50 [3]: < 31600 pM | IC50 [4]: < 31600 pM | IC50 [5]: < 31600 pM | viability, T/C [6]: 35.7% | viability, T/C (second compound 0.1 µM, first compound 0.1 µM): 32.4% | viability, T/C (second compound 0.1 µM, first compound 0.316 µM): 29.4% | viability, T/C (second compound 0.1 µM, first compound 1 µM): 34.1% | viability, T/C (second compound 0.1 µM, first compound 3.16 µM): 44.2% | viability, T/C (second compound 0.1 µM, first compound 10 µM): 43.8% | viability, T/C [7]: 32.8% | viability, T/C (second compound 0.316 µM, first compound 0.1 µM): 27.8% | viability, T/C (second compound 0.316 µM, first compound 0.316 µM): 28.8% | viability, T/C (second compound 0.316 µM, first compound 1 µM): 29.7% | viability, T/C (second compound 0.316 µM, first compound 3.16 µM): 38.3% | viability, T/C (second compound 0.316 µM, first compound 10 µM): 40.8% | viability, T/C [8]: 30.1% | viability, T/C (second compound 1 µM, first compound 0.1 µM): 31.6% | viability, T/C (second compound 1 µM, first compound 0.316 µM): 25.9% | viability, T/C (second compound 1 µM, first compound 1 µM): 30.7% | viability, T/C (second compound 1 µM, first compound 3.16 µM): 35% | viability, T/C (second compound 1 µM, first compound 10 µM): 35.9% | viability, T/C [9]: 4.28% | viability, T/C (second compound 3.16 µM, first compound 0.1 µM): 5.85% | viability, T/C (second compound 3.16 µM, first compound 0.316 µM): 4.27% | viability, T/C (second compound 3.16 µM, first compound 1 µM): 3.03% | viability, T/C (second compound 3.16 µM, first compound 3.16 µM): 0.28% | viability, T/C (second compound 3.16 µM, first compound 10 µM): 0.7% | viability, T/C [10]: 0.12% | viability, T/C (second compound 10 µM, first compound 0.1 µM): 0.11% | viability, T/C (second compound 10 µM, first compound 0.316 µM): 0.12% | viability, T/C (second compound 10 µM, first compound 1 µM): 0.15% | viability, T/C (second compound 10 µM, first compound 3.16 µM): 0.11% | viability, T/C (second compound 10 µM, first compound 10 µM): 0.19%

O=C(c1cc(Cc2n[nH]c(=O)c3ccccc23)ccc1F)N1CCN(C(=O)C2CC2)CC1
viability, T/C (compound 0.0316 µM): 99.2% [middle of 5 runs] | viability, T/C (compound 0.1 µM): 101% [middle of 5 runs] | viability, T/C (compound 0.316 µM): 99.5% [middle of 5 runs] | viability, T/C (compound 10 µM): 40.3% [middle of 5 runs]
